From patent US5066817A, “DC115A compounds produced by streptomyces sp” (Kyowa Hakko Kogyo Co., Ltd., priority 1989, dated 1991)
In brackets after ≈: the same amount, converted by molar mass.

How the values were obtained:
tumor cells = assay: Growth inhibition of tumor cells, overall result of (B) and (C); type: cell-based; conditions: from the results of (B) and (C)
Experimental: (§1) A T24 cell suspension ([…]) prepared by suspending T24 cells in a medium comprising F10 medium (GIBCO Co., Ltd.), […] fetal calf serum, 100 units/ml penicillin and 100 μg/ml streptomycin (hereinafter referred to as medium A) was put into wells of a 96-well microtiter plate in an amount of 0.1 ml per well. After incubation at 37° C. for 20 hours in a […], 0.05 ml of a sample appropriately diluted with medium A was added to each well. The cells were further cultured at 37° C. for 72 hours in the CO2 -incubator and the culture supernatant was removed. To the residue was added a medium comprising medium A and 0.02% Neutral Red in an amount of 0.1 ml per well, followed by culturing at 37° C. for one hour in the CO2 -incubator, whereby the cells were stained. After the culture supernatant was removed, the residue was washed once with physiological saline.
(§2) Then, the pigment was extracted with 0.001N hydrochloric acid/30% ethanol and absorbance at 550 nm was measured with a microplate reader. By comparing the absorbance of intact cells with those of the cells treated with a test compound at known concentrations, the concentration of the test compound at which the growth of the cells is inhibited by 50% (IC50) was determined.
(§3) IC50 was determined in the same manner as in the case of T24 cells except that a suspension of HeLaS3 cells (3×10^4 cells/ml) prepared by suspending HeLaS3 cell medium comprising MEM medium (Nissui Pharmaceutical Co., Ltd.) and 2 mM glutamine was used.

HeLaS3 cells = assay: Growth inhibition against HeLaS3 cells; type: cell-based; conditions: Homo sapiens, HeLa S3, 72 hours
Experimental: as §1, §2, §3

T24 cells = assay: Growth inhibition against T24 cells (Neutral Red staining); type: cell-based; conditions: Homo sapiens, T-24, 72 hours
Experimental: as §1, §2

Solubility = type: physicochemical
[1] = system: Staphylococcus aureus ATCC 6538P; assay: Antibacterial activity, agar dilution method (pH 7.0); type: cell-based; conditions: ATCC6538P, read-out: Minimum Inhibitory Concentration
Experimental: (§4) The minimum inhibitory concentration (MIC) against various bacteria was determined by the agar dilution method (pH 7.0).

Escherichia coli ATCC 26 = assay: as above; type: cell-based; conditions: ATCC26, read-out: Minimum Inhibitory Concentration
Experimental: as §4

[2] = system: Klebsiella pneumoniae ATCC 10031; assay: as above; type: cell-based; conditions: ATCC10031, read-out: Minimum Inhibitory Concentration
Experimental: as §4

[3] = system: Salmonella typhi ATCC 9992; assay: as above; type: cell-based; conditions: Salmonella enterica, pH 7, read-out: Minimum Inhibitory Concentration
Experimental: as §4

[4] = system: Bacillus subtilis No. 10707; assay: as above; type: cell-based; conditions: read-out: Minimum Inhibitory Concentration
Experimental: as §4

[5] = chloroform, dimethylsulfoxide, methanol, ethyl acetate and acetone

Row | Structure (SMILES) | inhibition of growth of tumor cells (tumor cells) | IC50 (HeLaS3 cells) [µg/mL] | IC50 (T24 cells) [µg/mL] | Solubility (Solubility; [5]) | Solubility (Solubility; water and n-hexane) | MIC [1] [µg/mL] | MIC (Escherichia coli ATCC 26) [µg/mL] | MIC [2] [µg/mL] | MIC [3] [µg/mL] | MIC [4] [µg/mL]
1 | CC=CC1OC1(C)c1cc(=O)c2c(CC(=O)O)cc3cc4c(c(O)c3c2o1)C(=O)CCC4OC(C)=O (stereo not drawn) [DC115A3] | inhibit the growth of tumor cells | 0.42 (≈ 0.853 µM) | 0.14 (≈ 0.284 µM) | Soluble | sparingly soluble | 0.3 (≈ 0.609 µM) | 21 (≈ 42.6 µM) | 5.2 (≈ 10.6 µM) | 83 (≈ 169 µM) | 1.3 (≈ 2.64 µM)
2 | CCC1OC1(C)c1cc(=O)c2c(CC(=O)O)cc3cc4c(c(O)c3c2o1)C(=O)CCC4OC(C)=O (stereo not drawn) [DC115A2] | inhibit the growth of tumor cells | 0.19 (≈ 0.395 µM) | 0.11 (≈ 0.229 µM) | Soluble | sparingly soluble | 2.6 (≈ 5.41 µM) | 83 (≈ 173 µM) | 10 (≈ 20.8 µM) | > 100 | 10 (≈ 20.8 µM)
3 | CCCC1OC1(C)c1cc(=O)c2c(CC(=O)O)cc3cc4c(c(O)c3c2o1)C(=O)CCC4OC(C)=O (stereo not drawn) [DC115A1] | inhibit the growth of tumor cells | 0.22 (≈ 0.445 µM) | 0.17 (≈ 0.344 µM) | Soluble | sparingly soluble | 5.2 (≈ 10.5 µM) | > 100 | > 100 | > 100 | 10 (≈ 20.2 µM)
